Source: the NIST ThermoML archive (doi:10.1016/j.jct.2019.01.027)
Numbers after ± are expanded uncertainties.

Conditions: Liquid, Ebulliometric method (Recirculating still)

CCO [ethanol]
vapor or sublimation pressure (351.45 K): 101.3 ± 1.2 kPa

CCCCOC(=O)CC [butyl propanoate]
vapor or sublimation pressure (418.35 K): 101.3 ± 1.2 kPa

CC(=O)OCC(C)C [2-methylpropyl ethanoate]
vapor or sublimation pressure (389.55 K): 101.3 ± 1.2 kPa

Cc1ccc(C)cc1 [1,4-dimethylbenzene]
vapor or sublimation pressure (411.45 K): 101.3 ± 1.2 kPa

COC(=O)OC [dimethyl carbonate]
vapor or sublimation pressure (363.35 K): 101.3 ± 1.2 kPa
